Like-named read-outs stand apart in the source and are kept apart here.
How the values were obtained:
Propionibacterium acne [1] = test: Median inhibitory concentration (IC50) in BHI broth, reading at 610 nm; format: cell-based
Experimental: (§1) Two series of tests were conducted to evaluate the bioefficacy of bakuchiol, salicylic acid and the combination of the two against Propionibacterium acne. The first evaluated the median inhibitory concentration (IC50) of each of the two actives in order to set the dosing for the second test. The second test ascertained the bioefficacy, as represented by the zone of inhibition, of each active and their combination in relation to P. acne. In both sets of tests, inoculums of 1.0 x 10^6 cfu/ml P. acne were used.
P. acne organisms were inoculated into Brain Heart Infusion (BHI) broth and incubated at 37°C for 24 hrs. Thereafter, the culture was serially diluted to a 10^-6 dilution. 100 µl aliquots of the 10^-6 dilution culture were then added to sterile test tubes containing 10 ml fresh BHI broth serial solutions of bakuchiol or salicylic acid. The serial solutions contained either active at from 0.5 to 50 µg/ml concentrations in 0.5 µg/ml increments, i.e., 0.5, 1.0, 1.5,..., 50.0 µg/ml. An inoculated control, free of either active, was also evaluated. The inoculated test tubes were then incubated at 37°C for 48 hrs. UV spectrophotometric readings were then made of each test tube at 610 nm and the values plotted.

Propionibacterium acne [2] = test: Zone of inhibition (agar well diffusion technique); format: cell-based
Experimental: as §1
Agar plates were prepared by first pouring sterile molten agar into petriplates to a depth of 6mm. After allowing the agar to solidify sufficiently, a well of 10 mm diameter was prepared by carefully punching and removing a 10 mm diameter plug of agar without lifting the surrounding medium. In this experiment, all cultures used were adjusted to the turbidity of 0.5 McFarland per the standard procedure and then 0.1 ml of each culture was spread plated onto the agar plates. Appropriate controls were maintained.
Stock solutions of the actives to be tested were prepared by dissolving 1 mg of each of the actives, Sytenol A bakuchiol and salicylic acid, in separate 5 ml quantities of dimethyl sulfoxide (DMSO) at room temperature: though slight warming was employed to expedite the dissolution of the salicylic acid. These stock solutions were then diluted or mixed and diluted to produce sample solutions having the concentrations of each active as noted in Table 4 and the well of each plate filled with the appropriate solution by capillary pipette. Nothing was placed in the well of the control.
Following inoculation and addition of the test sample to the well, each plate was then covered and incubated for 48 hours at 37 °C. Following incubation, the plates were removed and the zones of inhibition recorded and tabulated. […] When both actives were present at one-half the median inhibitory concentration, […] (Sample F); however, it seemed that the apparent ineffectiveness of the salicylic acid at this level appeared to offset or counteract the effectiveness of the bakuchiol. Consequently, at least for salicylic acid, at least one-half and preferably at least the median inhibitory concentration of the dermatological acid should be used.

[3] = biological target: T1, human neutrophil elastase (Homo sapiens, UniProt P08246); test: Elastase inhibitory activity (colorimetric substrate Suc-Ala-Ala-Ala-pNA, 410 nm); format: biochemical; settings: for remaining activity at 1 µg/mL: 1 ug/ml; for remaining activity at 1 µg/mL / remaining activity at 5 µg/mL / remaining activity at 25 µg/mL: average of three runs, water = 100, read-out: Elastase Activity (% of Control); for remaining activity at 5 µg/mL: 5 ug/ml; for remaining activity at 25 µg/mL: 25 ug/ml; for elastase inhibitory effect: at the concentrations tested
T1 construct: purchased Calbiochem of San Diego, CA, US 324681
T1 sequence (P08246 30-247 limits assumed): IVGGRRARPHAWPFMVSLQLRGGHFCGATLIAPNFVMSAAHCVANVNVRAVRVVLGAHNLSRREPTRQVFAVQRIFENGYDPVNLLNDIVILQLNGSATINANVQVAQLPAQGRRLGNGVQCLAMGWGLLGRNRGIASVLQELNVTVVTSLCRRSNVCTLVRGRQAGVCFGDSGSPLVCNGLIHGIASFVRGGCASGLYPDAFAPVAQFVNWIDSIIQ

[4] = tested on: Clostridium collagenase IV; test: Collagenase inhibitory activity (Enzcheck kit, quenched fluorescent gelatin); format: biochemical
Experimental: In order to ascertain whether other benefits may be attained by the use of meroterpenes in skin care formulations, a study was conducted on the impact, if any, the presence of bakuchiol may have on collagenase: a collagenolytic enzyme responsible for much of the collagen damage associated with UV exposure and photoaging in general. Collagenase activity was measured with an Enzcheck kit from Molecular Probes (Carlsbad, CA, USA) using quenched fluorescent gelatin and Clostridium collagenase IV, a generic metalloproteinase. Test material (aqueous solutions 1000ug/ml, 100ug/ml, 10ug/ml and 1ug/ml made from 10mg/ml stock in DMSO) was incubated in the presence of collagenase substrate - quenched fluorescin-linked gelatin and in the presence of the proteolytic enzyme. Phenanthroline, a potent metalloprotease (MP) inhibitor was used as positive control at 100ug/ml. The kinetics of the release of the digested, fluorescent gelatin were measured at excitation/emission wavelengths of 485/530nm with Millipore Cytofluor 2350 microfluorometer.

[5] = Skin sensitivity: repeated occlusive patch test, nine inductive patchings and a challenge; format: in vivo; settings: 5% dilution in corn oil, 111 subjects
Experimental: Reactions were scored 24 and 48 hours after application.

| Compound | IC50 (Propionibacterium acne [1]; 48 h) | zone of inhibition at 29 µg/mL (Propionibacterium acne [2]; Propionibacterium) | zone of inhibition at 58 µg/mL (Propionibacterium acne [2]; Propionibacterium) | Zone of Inhibition (Propionibacterium acne [2]; Sample C: Salicylic acid 14.5 µg/ml) | remaining activity at 1 µg/mL [3] | remaining activity at 5 µg/mL [3] | remaining activity at 25 µg/mL [3] | elastase inhibitory effect [3] | Collagenase median inhibitory concentration (IC50) [4] | primary irritation [5] | sensitization [5] | IC50 (Propionibacterium acne [1]; 48 hrs at 37°C, read-out: IC50) | zone of inhibition at 0.3 µg/mL (Propionibacterium acne [2]; Propionibacterium, Sample A: Bakuchiol 0.3 µg/ml) | zone of inhibition at 0.6 µg/mL (Propionibacterium acne [2]; Propionibacterium, Sample B: Bakuchiol 0.6 µg/ml) |
| --- | --- | --- | --- | --- | --- | --- | --- | --- | --- | --- | --- | --- | --- | --- |
| O=C(O)c1ccccc1O [Salicylic acid, 2-hydroxybenzoic acid] | 29 mg/L | 12 mm | 12 mm | No Inhibition |  |  |  |  |  |  |  |  |  |  |
| CC1=C(/C=C/C(C)=C/C=C/C(C)=C/CO)C(C)(C)CCC1 [Retinol, reference compound] |  |  |  |  | 87% | 138% | 416% | no statistically significant elastase inhibitory effect |  |  |  |  |  |  |
| C=C[C@@](C)(/C=C/c1ccc(O)cc1)CCC=C(C)C [Bakuchiol] |  |  |  |  | 31% | 65% | 77% | clear elastase inhibition at all concentrations tested | ~0.1 % (w/w) | NON-PRIMARY IRRITANT | NON-PRIMARY SENSITIZER | 0.6 mg/L | 35 mm | 37 mm |
